Assay results: ChEMBL document CHEMBL1149453, “Thyroid receptor ligands. Part 4: 4'-amido bioisosteric ligands selective for the thyroid hormone receptor beta” (Bioorg Med Chem Lett, 2006)
pIC50: −log10 of the molar value.

Columns and labels:
[1] = target: Thyroid hormone receptor (Homo sapiens) (UniProt P10827+P10828); assay: Selectivity for human thyroid hormone receptor beta 1 over thyroid hormone receptor alpha 1; assay type: protein-complex assay
[2] = target: T1, Thyroid hormone receptor beta (Homo sapiens, UniProt P10828); assay: Binding affinity to human thyroid hormone receptor beta 1
T1 sequence (P10828 whole entry): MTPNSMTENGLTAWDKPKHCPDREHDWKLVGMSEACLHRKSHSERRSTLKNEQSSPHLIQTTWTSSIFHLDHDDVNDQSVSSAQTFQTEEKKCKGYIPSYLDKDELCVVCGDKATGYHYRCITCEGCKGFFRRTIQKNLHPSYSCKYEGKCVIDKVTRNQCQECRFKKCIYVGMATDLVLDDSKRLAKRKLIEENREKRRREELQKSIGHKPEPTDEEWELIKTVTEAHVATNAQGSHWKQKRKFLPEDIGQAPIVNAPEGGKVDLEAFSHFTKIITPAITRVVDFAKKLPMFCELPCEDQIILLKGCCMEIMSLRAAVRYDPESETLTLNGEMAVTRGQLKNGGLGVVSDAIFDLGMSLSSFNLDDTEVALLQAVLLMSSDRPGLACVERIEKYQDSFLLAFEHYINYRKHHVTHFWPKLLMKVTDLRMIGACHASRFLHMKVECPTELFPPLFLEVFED

[3] = target: T2, Thyroid hormone receptor alpha (Homo sapiens, UniProt P10827); assay: Binding affinity to human thyroid hormone receptor alpha 1
T2 sequence (P10827 whole entry): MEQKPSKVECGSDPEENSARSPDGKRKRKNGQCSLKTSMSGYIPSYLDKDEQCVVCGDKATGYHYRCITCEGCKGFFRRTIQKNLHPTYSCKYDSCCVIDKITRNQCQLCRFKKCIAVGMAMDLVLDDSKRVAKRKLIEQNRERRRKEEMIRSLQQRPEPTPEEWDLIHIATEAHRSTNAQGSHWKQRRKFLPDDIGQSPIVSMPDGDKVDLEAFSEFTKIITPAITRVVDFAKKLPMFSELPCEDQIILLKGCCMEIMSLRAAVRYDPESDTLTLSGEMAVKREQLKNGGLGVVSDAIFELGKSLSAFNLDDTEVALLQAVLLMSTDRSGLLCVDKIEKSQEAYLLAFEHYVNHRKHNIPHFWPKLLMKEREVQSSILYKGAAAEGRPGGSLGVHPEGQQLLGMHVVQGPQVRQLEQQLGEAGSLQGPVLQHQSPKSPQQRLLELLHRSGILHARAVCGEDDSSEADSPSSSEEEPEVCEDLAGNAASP

SMILES | Ratio IC50 [1] | pIC50 [2] | pIC50 [3]
CC(C)C(=O)Nc1ccc(Oc2c(Cl)cc(CC(=O)O)cc2Cl)cc1Br | 21 | 7.74 | 6.20
CCCC(CCC)C(=O)Nc1ccc(Oc2c(Cl)cc(CC(=O)O)cc2Cl)cc1Br | 16 | 7.35 | 5.92
CCCC(C)C(=O)Nc1ccc(Oc2c(Cl)cc(CC(=O)O)cc2Cl)cc1Br (stereo not drawn) | 16 | 7.33 | 5.89
CCC(=O)Nc1ccc(Oc2c(Cl)cc(CC(=O)O)cc2Cl)cc1Br | 14 | 6.85 | 5.48

These reach a higher pIC50 [2]. Values come first.

Ratio IC50 [1] | pIC50 [2] | pIC50 [3] | SMILES
22 | 7.80 | 6.21 | CCC(CC)C(=O)Nc1ccc(Oc2c(Cl)cc(CC(=O)O)cc2Cl)cc1Br
33 | 8.37 | 6.62 | CCC(C)C(=O)Nc1ccc(Oc2c(Cl)cc(CC(=O)O)cc2Cl)cc1Br (stereo not drawn)
